Measured values: the supplement of paper PMC10883282
± gives the standard deviation of the averaged measurements.

Experiments:
Test in all cases: relative viability vs DMSO control (72 h) (fraction); higher = more viable cells
A204 = test system: A204
How it was run: (§1)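 Relative viability was measured with ATPLite and expressed as percent growth, averaged across up to triplicate wells. Sarcoma cell lines had been seeded in 384-well plates to reach 80–90% confluence, dosed after 24 h, and incubated 72 h at 37 °C, 5% CO2. All data were rescaled on a scale where 1 is full and 0 is none.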

G401 = test system: G401
How it was run: as §1

HS729 = test system: HS729
How it was run: as §1

HT1080 = test system: HT1080
How it was run: as §1

KHOS-NP = test system: KHOS-NP
How it was run: as §1

RD-ES = test system: RD-ES
How it was run: as §1

SK-ES-1 = test system: SK-ES-1
How it was run: as §1

SK-LMS-1 = test system: SK-LMS-1
How it was run: as §1

SW684 = test system: SW684
How it was run: as §1

SW872 = test system: SW872
How it was run: as §1

SW982 = test system: SW982
How it was run: as §1

VA-ES-BJ = test system: VA-ES-BJ
How it was run: as §1

Cc1[nH]c(/C=C2\C(=O)Nc3ccc(F)cc32)c(C)c1C(=O)NCCN1CCCC1 [Toceranib]
Settings | relative viability
A204, 68 pM | 1.05 ± 0.049
A204, 0.000203 µM | 1.01 ± 0.034
A204, 0.0006 µM | 1.06 ± 0.054
A204, 0.0018 µM | 1.08 ± 0.043
A204, 0.0055 µM | 1.03 ± 0.028
A204, 0.0165 µM | 0.938 ± 0.063
A204, 0.0494 µM | 0.633 ± 0.033
A204, 0.1481 µM | 0.442 ± 0.029
A204, 0.444 µM | 0.394 ± 0.015
A204, 1.333 µM | 0.355 ± 0.03
A204, 4 µM | 0.327 ± 0.011
G401, 68 pM | 0.991 ± 0.022
G401, 0.000203 µM | 0.978 ± 0.056
G401, 0.0006 µM | 0.979 ± 0.042
G401, 0.0018 µM | 0.983 ± 0.033
G401, 0.0055 µM | 0.974 ± 0.038
G401, 0.0165 µM | 0.918 ± 0.024
G401, 0.0494 µM | 0.941 ± 0.02
G401, 0.1481 µM | 0.924 ± 0.013
G401, 0.444 µM | 0.938 ± 0.045
G401, 1.333 µM | 0.912 ± 0.017
G401, 4 µM | 0.787 ± 0.03
HS729, 68 pM | 0.982 ± 0.016
HS729, 0.000203 µM | 0.926 ± 0.062
HS729, 0.0006 µM | 0.901 ± 0.026
HS729, 0.0018 µM | 0.859 ± 0.013
HS729, 0.0055 µM | 0.84 ± 0.053
HS729, 0.0165 µM | 0.778 ± 0.034
HS729, 0.0494 µM | 0.765 ± 0.013
HS729, 0.1481 µM | 0.729 ± 0.028
HS729, 0.444 µM | 0.715 ± 0.019
HS729, 1.333 µM | 0.59 ± 0.017
HS729, 4 µM | 0.414 ± 0.026
HT1080, 68 pM | 1.09 ± 0.025
HT1080, 0.000203 µM | 1.06 ± 0.076
HT1080, 0.0006 µM | 1.116 ± 0.0084
HT1080, 0.0018 µM | 1.07 ± 0.027
HT1080, 0.0055 µM | 1.076 ± 0.005
HT1080, 0.0165 µM | 1.04 ± 0.045
HT1080, 0.0494 µM | 1.09 ± 0.043
HT1080, 0.1481 µM | 1 ± 0.041
HT1080, 0.444 µM | 1.1 ± 0.022
HT1080, 1.333 µM | 1.14 ± 0.016
HT1080, 4 µM | 0.868 ± 0.016
KHOS-NP, 68 pM | 1.09 ± 0.013
KHOS-NP, 0.000203 µM | 1.106 ± 0.0016
KHOS-NP, 0.0006 µM | 1.0967 ± 0.00085
KHOS-NP, 0.0018 µM | 1.08 ± 0.028
KHOS-NP, 0.0055 µM | 1.07 ± 0.034
KHOS-NP, 0.0165 µM | 1.07 ± 0.035
KHOS-NP, 0.0494 µM | 1.03 ± 0.048
KHOS-NP, 0.1481 µM | 1.02 ± 0.053
KHOS-NP, 0.444 µM | 1.02 ± 0.042
KHOS-NP, 1.333 µM | 1 ± 0.018
KHOS-NP, 4 µM | 0.775 ± 0.051
RD-ES, 68 pM | 0.976 ± 0.036
RD-ES, 0.000203 µM | 0.948 ± 0.014
RD-ES, 0.0006 µM | 0.964 ± 0.025
RD-ES, 0.0018 µM | 0.943 ± 0.022
RD-ES, 0.0055 µM | 0.9493 ± 0.008
RD-ES, 0.0165 µM | 0.937 ± 0.038
RD-ES, 0.0494 µM | 0.924 ± 0.033
RD-ES, 0.1481 µM | 0.902 ± 0.011
RD-ES, 0.444 µM | 0.821 ± 0.022
RD-ES, 1.333 µM | 0.615 ± 0.012
RD-ES, 4 µM | 0.176 ± 0.018
SK-ES-1, 68 pM | 1.01 ± 0.024
SK-ES-1, 0.000203 µM | 1.02 ± 0.033
SK-ES-1, 0.0006 µM | 1 ± 0.022
SK-ES-1, 0.0018 µM | 0.995 ± 0.071
SK-ES-1, 0.0055 µM | 0.996 ± 0.052
SK-ES-1, 0.0165 µM | 0.98 ± 0.05
SK-ES-1, 0.0494 µM | 0.972 ± 0.026
SK-ES-1, 0.1481 µM | 0.913 ± 0.065
SK-ES-1, 0.444 µM | 0.802 ± 0.069
SK-ES-1, 1.333 µM | 0.43 ± 0.016
SK-ES-1, 4 µM | 0.165 ± 0.017
SK-LMS-1, 68 pM | 0.939 ± 0.038
SK-LMS-1, 0.000203 µM | 0.944 ± 0.052
SK-LMS-1, 0.0006 µM | 0.972 ± 0.045
SK-LMS-1, 0.0018 µM | 0.968 ± 0.047
SK-LMS-1, 0.0055 µM | 0.941 ± 0.042
SK-LMS-1, 0.0165 µM | 0.946 ± 0.037
SK-LMS-1, 0.0494 µM | 0.906 ± 0.02
SK-LMS-1, 0.1481 µM | 0.921 ± 0.043
SK-LMS-1, 0.444 µM | 0.893 ± 0.025
SK-LMS-1, 1.333 µM | 0.81 ± 0.012
SK-LMS-1, 4 µM | 0.717 ± 0.028
SW684, 68 pM | 1.1 ± 0.057
SW684, 0.000203 µM | 1.178 ± 0.011
SW684, 0.0006 µM | 1.13 ± 0.072
SW684, 0.0018 µM | 1.13 ± 0.037
SW684, 0.0055 µM | 1.14 ± 0.038
SW684, 0.0165 µM | 1.1 ± 0.038
SW684, 0.0494 µM | 1.15 ± 0.065
SW684, 0.1481 µM | 1.14 ± 0.046
SW684, 0.444 µM | 1.12 ± 0.038
SW684, 1.333 µM | 0.956 ± 0.039
SW684, 4 µM | 0.755 ± 0.053
SW872, 68 pM | 1.05 ± 0.03
SW872, 0.000203 µM | 1.05 ± 0.042
SW872, 0.0006 µM | 1.03 ± 0.064
SW872, 0.0018 µM | 0.982 ± 0.063
SW872, 0.0055 µM | 0.954 ± 0.025
SW872, 0.0165 µM | 0.971 ± 0.029
SW872, 0.0494 µM | 0.944 ± 0.047
SW872, 0.1481 µM | 0.939 ± 0.033
SW872, 0.444 µM | 0.886 ± 0.074
SW872, 1.333 µM | 0.65 ± 0.044
SW872, 4 µM | 0.521 ± 0.043
SW982, 68 pM | 0.951 ± 0.061
SW982, 0.000203 µM | 0.984 ± 0.036
SW982, 0.0006 µM | 0.962 ± 0.048
SW982, 0.0018 µM | 1.01 ± 0.054
SW982, 0.0055 µM | 0.985 ± 0.061
SW982, 0.0165 µM | 1 ± 0.083
SW982, 0.0494 µM | 0.929 ± 0.038
SW982, 0.1481 µM | 0.993 ± 0.11
SW982, 0.444 µM | 0.948 ± 0.04
SW982, 1.333 µM | 0.571 ± 0.018
SW982, 4 µM | 0.31 ± 0.027
VA-ES-BJ, 68 pM | 1.07 ± 0.034
VA-ES-BJ, 0.000203 µM | 1.05 ± 0.029
VA-ES-BJ, 0.0006 µM | 1.04 ± 0.036
VA-ES-BJ, 0.0018 µM | 1.03 ± 0.049
VA-ES-BJ, 0.0055 µM | 1.04 ± 0.029
VA-ES-BJ, 0.0165 µM | 1.01 ± 0.022
VA-ES-BJ, 0.0494 µM | 0.987 ± 0.04
VA-ES-BJ, 0.1481 µM | 1 ± 0.056
VA-ES-BJ, 0.444 µM | 0.961 ± 0.041
VA-ES-BJ, 1.333 µM | 0.859 ± 0.051
VA-ES-BJ, 4 µM | 0.675 ± 0.03
